Assay results as given in ChEMBL document CHEMBL4834484, “Identification of isoform/domain-selective fragments from the selection of DNA-encoded dynamic library” (Bioorg Med Chem, 2021).

Legend:
[1] = biological target: T1, NAD-dependent protein deacetylase sirtuin-2 (Homo sapiens, UniProt Q8IXJ6); assay: Inhibition of human recombinant SIRT2 assessed as inhibition of substrate deacetylation using Gln-Pro-Lys-Lys- (epsilon acetyl) AMC peptide as substrate in presence of NAD+ measured by fluorescence based analysis
T1 sequence (Q8IXJ6 whole entry): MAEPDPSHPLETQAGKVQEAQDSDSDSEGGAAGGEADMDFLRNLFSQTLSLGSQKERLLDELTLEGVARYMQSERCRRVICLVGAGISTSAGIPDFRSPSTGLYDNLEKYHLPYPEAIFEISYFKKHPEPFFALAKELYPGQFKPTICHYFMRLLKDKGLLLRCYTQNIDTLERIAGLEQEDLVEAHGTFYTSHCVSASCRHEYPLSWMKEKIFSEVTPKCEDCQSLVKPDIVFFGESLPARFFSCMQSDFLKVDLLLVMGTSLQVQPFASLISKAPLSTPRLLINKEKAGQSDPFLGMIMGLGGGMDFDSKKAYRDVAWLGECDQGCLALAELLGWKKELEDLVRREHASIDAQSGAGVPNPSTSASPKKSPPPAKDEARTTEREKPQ

[2] = biological target: T2, NAD-dependent protein deacetylase sirtuin-1 (Homo sapiens, UniProt Q96EB6); assay: Inhibition of human recombinant SIRT1 assessed as inhibition of substrate deacetylation using Gln-Pro-Lys-Lys- (epsilon acetyl) AMC peptide as substrate in presence of NAD+ measured by fluorescence based analysis
T2 sequence (Q96EB6 whole entry): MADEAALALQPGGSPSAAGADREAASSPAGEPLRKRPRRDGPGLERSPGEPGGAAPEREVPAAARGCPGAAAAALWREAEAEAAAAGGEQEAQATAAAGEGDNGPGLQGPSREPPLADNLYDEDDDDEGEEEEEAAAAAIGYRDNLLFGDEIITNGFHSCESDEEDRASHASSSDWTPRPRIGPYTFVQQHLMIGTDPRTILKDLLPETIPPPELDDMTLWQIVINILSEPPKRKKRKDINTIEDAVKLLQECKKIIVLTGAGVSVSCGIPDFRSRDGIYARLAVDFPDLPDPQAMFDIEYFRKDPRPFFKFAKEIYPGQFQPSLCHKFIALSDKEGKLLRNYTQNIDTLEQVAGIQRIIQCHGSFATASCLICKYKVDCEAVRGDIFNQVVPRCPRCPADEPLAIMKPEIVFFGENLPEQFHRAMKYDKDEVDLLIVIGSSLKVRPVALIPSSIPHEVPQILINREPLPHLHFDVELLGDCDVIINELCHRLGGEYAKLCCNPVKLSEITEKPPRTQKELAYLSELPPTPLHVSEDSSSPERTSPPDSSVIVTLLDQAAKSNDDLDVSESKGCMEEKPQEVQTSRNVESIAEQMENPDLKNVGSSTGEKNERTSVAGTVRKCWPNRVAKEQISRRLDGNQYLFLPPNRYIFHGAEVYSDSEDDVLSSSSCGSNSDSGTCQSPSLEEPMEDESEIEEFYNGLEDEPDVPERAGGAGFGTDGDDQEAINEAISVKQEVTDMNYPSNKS

[3] = biological target: T3, NAD-dependent protein deacetylase sirtuin-3, mitochondrial (Homo sapiens, UniProt Q9NTG7); assay: Inhibition of human recombinant SIRT3 assessed as inhibition of substrate deacetylation using Gln-Pro-Lys-Lys- (epsilon acetyl) AMC peptide as substrate in presence of NAD+ measured by fluorescence based analysis
T3 sequence (Q9NTG7 whole entry): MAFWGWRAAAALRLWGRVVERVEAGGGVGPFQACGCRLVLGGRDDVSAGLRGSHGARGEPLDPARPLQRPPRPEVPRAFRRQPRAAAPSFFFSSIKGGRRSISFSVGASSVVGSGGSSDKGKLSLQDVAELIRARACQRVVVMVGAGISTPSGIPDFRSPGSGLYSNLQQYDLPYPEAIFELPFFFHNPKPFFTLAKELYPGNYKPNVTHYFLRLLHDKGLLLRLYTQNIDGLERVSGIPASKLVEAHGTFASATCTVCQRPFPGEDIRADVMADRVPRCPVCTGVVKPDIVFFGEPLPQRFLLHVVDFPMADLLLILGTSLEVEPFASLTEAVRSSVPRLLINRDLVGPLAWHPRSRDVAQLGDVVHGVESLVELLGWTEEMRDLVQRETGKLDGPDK

[4] = biological target: T4, NAD-dependent protein deacylase sirtuin-5, mitochondrial (Homo sapiens, UniProt Q9NXA8); assay: Inhibition of human recombinant SIRT5 assessed as inhibition of substrate desuccinylation using Fluor de Lys-Succinyl green peptide as substrate in presence of NAD+ measured by fluorometric assay
[5] = biological target: T4, NAD-dependent protein deacylase sirtuin-5, mitochondrial; assay: Binding affinity to chip-immobilized recombinant human SIRT5 measured after 300 secs by surface plasmon resonance method
[6] = biological target: T1, NAD-dependent protein deacetylase sirtuin-2; assay: Binding affinity to chip-immobilized recombinant human SIRT2 measured after 300 secs by surface plasmon resonance method
[7] = biological target: T5, Bromodomain-containing protein 4 (Homo sapiens, UniProt O60885); assay: Displacement of SGRG-K(Ac)-GG-K(Ac)-GLG-K(Ac)-GGA-K(Ac)-RHRKVGG-K(Biotin) from Europium chelated human BRD4 bromodomain 1 (49 to 170 residues) measured after 2 hrs by TR-FRET assay
[8] = biological target: T5, Bromodomain-containing protein 4; assay: Displacement of SGRG-K(Ac)-GG-K(Ac)-GLG-K(Ac)-GGA-K(Ac)-RHRKVGG-K(Biotin) from Europium chelated human BRD4 bromodomain 2 (342 to 460 residues) measured after 2 hrs by TR-FRET assay
[9] = biological target: T3, NAD-dependent protein deacetylase sirtuin-3, mitochondrial; assay: Binding affinity to chip-immobilized recombinant human SIRT3 measured after 300 secs by surface plasmon resonance method
[10] = biological target: T2, NAD-dependent protein deacetylase sirtuin-1; assay: Binding affinity to chip-immobilized recombinant human SIRT1 measured after 300 secs by surface plasmon resonance method

T4 sequence (Q9NXA8 whole entry): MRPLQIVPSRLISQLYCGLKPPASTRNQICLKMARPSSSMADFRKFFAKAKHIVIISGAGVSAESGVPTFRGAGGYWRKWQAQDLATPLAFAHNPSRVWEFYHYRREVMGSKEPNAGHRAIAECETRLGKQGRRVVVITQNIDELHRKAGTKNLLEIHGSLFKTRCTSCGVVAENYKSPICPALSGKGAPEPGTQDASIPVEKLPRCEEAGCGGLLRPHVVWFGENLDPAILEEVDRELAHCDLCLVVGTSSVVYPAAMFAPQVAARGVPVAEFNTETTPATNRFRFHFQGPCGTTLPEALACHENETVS

Row | Compound | IC50 [1] | Ki [1] | further results
1 | CC1COc2c(N3CCN(C)CC3)c(F)cc3c(=O)c(C(=O)NCCOCCOCCNC(=O)c4cn5c6c(c(N7CCN(C)CC7)c(F)cc6c4=O)OCC5C)cn1c23 (stereo not given) | 383 µM | 111 µM | –
2 | O=C1CC(C(=O)NCCCCCCNCC(=O)C2CC3CCC2C3)c2ccccc21 (stereo not given) | 938 µM | 272 µM | IC50 [2]: 78 µM; Ki [2]: 48 µM; IC50 [3]: 621 µM; Ki [3]: 447 µM
3 | CN(CCCN1c2ccccc2CCc2ccccc21)C(=O)CCCCCNC(=O)C[C@@H](Cc1ccccc1)NC(=O)OC(C)(C)C | – | – | IC50 [4]: 183 µM; Ki [4]: 122 µM; Kd [5]: 2.47 µM
4 | O=C1CC(C(=O)NCCOCCOCCNCC(=O)C2CC3CCC2C3)c2ccccc21 (stereo not given) | – | – | IC50 [2]: 298 µM; Ki [2]: 183 µM
5 | CC1COc2c(N3CCN(C)CC3)c(F)cc3c(=O)c(C(=O)NCCOCCOCCOCCNC(=O)CCc4nc(-c5ccncc5)no4)cn1c23 (stereo not given) | 24 µM | 7 µM | Kd [6]: 24 µM
6 | CNC(=O)c1cn2c3c(c(N4CCN(C)CC4)c(F)cc3c1=O)OCC2C (stereo not given) | – | – | IC50 [7]: 1130 µM; IC50 [8]: 321 µM
7 | O=C(NCCOCCOCCOCCNC(=O)c1cccc(-c2cccnc2)c1)c1cccc(-c2cccnc2)c1 | 22 µM | 6 µM | Kd [6]: 22 µM; Kd [9]: 297 µM; Kd [10]: 56 µM; Ki [2]: 35 µM; Ki [3]: 214 µM
8 | CSCC(=O)NCCCCCC(=O)N(C)CCCN1c2ccccc2CCc2ccccc21 | – | – | IC50 [7]: 972 µM; IC50 [8]: 231 µM
9 | CSCC(=O)N(C)CCCN1c2ccccc2CCc2ccccc21 | – | – | IC50 [7]: 1320 µM; IC50 [8]: 153 µM
10 | O=C1CC(C(=O)NCCOCCOCCOCCNCC(=O)C2CC3CCC2C3)c2ccccc21 (stereo not given) | – | – | IC50 [2]: 1050 µM; Ki [2]: 645 µM
11 | CC1COc2c(N3CCN(C)CC3)c(F)cc3c(=O)c(C(=O)NCCCCCC(=O)N(C)CCCN4c5ccccc5CCc5ccccc54)cn1c23 (stereo not given) | – | – | IC50 [7]: 107 µM; IC50 [8]: 30 µM
12 | CC1COc2c(N3CCN(C)CC3)c(F)cc3c(=O)c(C(=O)N(C)CCCN4c5ccccc5CCc5ccccc54)cn1c23 (stereo not given) | – | – | IC50 [7]: 227 µM; IC50 [8]: 41 µM
13 | CC1COc2c(N3CCN(C)CC3)c(F)cc3c(=O)c(C(=O)NCc4ccc(CNC(=O)CCc5nc(-c6ccncc6)no5)cc4)cn1c23 (stereo not given) | 193 µM | 56 µM | –
14 | CC1COc2c(N3CCN(C)CC3)c(F)cc3c(=O)c(C(=O)NCCCNC(=O)c4cn5c6c(c(N7CCN(C)CC7)c(F)cc6c4=O)OCC5C)cn1c23 (stereo not given) | 303 µM | 88 µM | –
15 | COc1cc(CC(=O)NCc2ccc(CNC(=O)c3cn4c5c(c(N6CCN(C)CC6)c(F)cc5c3=O)OCC4C)cc2)cc(OC)c1OC (stereo not given) | 985 µM | 286 µM | –
16 | O=C1CC(C(=O)NCc2ccc(CNCC(=O)C3CC4CCC3C4)cc2)c2ccccc21 (stereo not given) | – | – | IC50 [2]: 195 µM; Ki [2]: 120 µM
17 | COc1cc(CC(=O)NCCCNC(=O)c2cn3c4c(c(N5CCN(C)CC5)c(F)cc4c2=O)OCC3C)cc(OC)c1OC (stereo not given) | 39 µM | 11 µM | Kd [6]: 39 µM
18 | CC1COc2c(N3CCN(C)CC3)c(F)cc3c(=O)c(C(=O)NCCOCCOCCNC(=O)CCc4nc(-c5ccncc5)no4)cn1c23 (stereo not given) | 186 µM | 54 µM | –

Row | Compound | IC50 [1] | Ki [1] | further results
19 | COc1cc(CC(=O)NCc2ccc(CNC(=O)c3cccc(-c4cccnc4)c3)cc2)cc(OC)c1OC | 25 µM | 7 µM | Kd [6]: 25 µM; Kd [9]: 392 µM; Ki [3]: 282 µM
20 | COc1cc(CC(=O)NCCOCCOCCOCCNC(=O)c2cn3c4c(c(N5CCN(C)CC5)c(F)cc4c2=O)OCC3C)cc(OC)c1OC (stereo not given) | 7 µM | 2 µM | Kd [6]: 7 µM
21 | COc1cc(CC(=O)NCCOCCOCCOCCNC(=O)c2cccc(-c3cccnc3)c2)cc(OC)c1OC | 93 µM | 27 µM | –
22 | O=C1CC(C(=O)NCCCNCC(=O)C2CC3CCC2C3)c2ccccc21 (stereo not given) | – | – | IC50 [2]: 330 µM; Ki [2]: 203 µM
23 | COc1cc(CC(=O)NCCCNC(=O)c2cccc(-c3cccnc3)c2)cc(OC)c1OC | 299 µM | 87 µM | –
24 | O=C(NCCOCCOCCNC(=O)c1cccc(-c2cccnc2)c1)c1cccc(-c2cccnc2)c1 | 99 µM | 29 µM | –
25 | CC1COc2c(N3CCN(C)CC3)c(F)cc3c(=O)c(C(=O)NCCOCCOCCOCCNC(=O)c4cn5c6c(c(N7CCN(C)CC7)c(F)cc6c4=O)OCC5C)cn1c23 (stereo not given) | 316 µM | 92 µM | –
26 | CC1COc2c(N3CCN(C)CC3)c(F)cc3c(=O)c(C(=O)NCc4ccc(CNC(=O)c5cn6c7c(c(N8CCN(C)CC8)c(F)cc7c5=O)OCC6C)cc4)cn1c23 (stereo not given) | 186 µM | 54 µM | –
27 | CNC(=O)CSC | – | – | IC50 [8]: 1160 µM
28 | CC1COc2c(N3CCN(C)CC3)c(F)cc3c(=O)c(C(=O)NCCCNC(=O)CCc4nc(-c5ccncc5)no4)cn1c23 (stereo not given) | 52 µM | 15 µM | –
29 | COc1cc(CC(=O)NCCOCCOCCNC(=O)c2cccc(-c3cccnc3)c2)cc(OC)c1OC | 97 µM | 28 µM | –
30 | O=C(NCCCCCCNC(=O)c1cccc(-c2cccnc2)c1)c1cccc(-c2cccnc2)c1 | 39 µM | 12 µM | Kd [6]: 40 µM; Kd [10]: 118 µM; Ki [2]: 73 µM
31 | COc1cc(CC(=O)NCCOCCOCCNC(=O)c2cn3c4c(c(N5CCN(C)CC5)c(F)cc4c2=O)OCC3C)cc(OC)c1OC (stereo not given) | 32 µM | 9 µM | Kd [6]: 32 µM
32 | CC1COc2c(N3CCN(C)CC3)c(F)cc3c(=O)c(C(=O)NCCCCCCNC(=O)CCc4nc(-c5ccncc5)no4)cn1c23 (stereo not given) | 107 µM | 31 µM | –
33 | COc1cc(CC(=O)NCCCCCCNC(=O)c2cccc(-c3cccnc3)c2)cc(OC)c1OC | 44 µM | 13 µM | Kd [6]: 44 µM; Kd [9]: 488 µM; Kd [10]: 139 µM; Ki [2]: 85 µM; Ki [3]: 351 µM
34 | O=C(NCc1ccc(CNC(=O)c2cccc(-c3cccnc3)c2)cc1)c1cccc(-c2cccnc2)c1 | 91 µM | 26 µM | –
35 | COc1cc(CC(=O)NCCCCCCNC(=O)c2cn3c4c(c(N5CCN(C)CC5)c(F)cc4c2=O)OCC3C)cc(OC)c1OC (stereo not given) | 33 µM | 9 µM | Kd [6]: 33 µM
